Data on 14 compounds can be found in PMC9848385, “Design, synthesis, molecular modelling and antitumor evaluation of S-glucosylated rhodanines through topo II inhibition and DNA intercalation” (Journal of Enzyme Inhibition and Medicinal Chemistry, 2023).

Structures are written as SMILES. “And” between values parts separate entries of the source, which are not always exact repeats. Identical values can stand only once.

Data set [1] has as its system HepG2 cells. The data set is described as follows: MTT cytotoxicity assay, HepG2. The format is cell-based. The conditions noted are these: Homo sapiens, HepG2, 48 h, read-out: Cytotoxic IC50 HepG2.
Description: (§3) Using RPMI-1640 medium L-Glutamine (Lonza Verviers SPRL, Belgium, cat#12-604F), we successfully cultured liver (HepG2), breast (MCF-7), and lung (A549) cells bought from the National Research Institute, Egypt. Each culture was supplemented with 10% foetal bovine serum (FBS, Sigma-Aldrich, MO, USA) and 1% penicillin-streptomycin (Lonza, Belgium). Using a 96-well plate, cells were seeded at a density of 5,000 cells per well in triplicate. The chemicals were added to the cells on day 2 at doses of (0.01, 0.1, 1, 10, and 100 M). To determine cell viability, MTT solution was used after 48 h (Promega, USA)[84]. Using GraphPad Prism 7, as was previously reported in, we computed the survival rate in comparison to the control and obtained the IC50 values[85].
Another data set relates to A549 cells. The data set is described as follows: MTT cytotoxicity assay, A549. As to conditions: Homo sapiens, A549, 48 h, read-out: Cytotoxic IC50 A549. The format is cell-based. For orientation: Tetrazolium dyes change colour on reduction, which living cells bring about.
The subject of the next data set is MCF-7 cells. The data set is described as follows: MTT cytotoxicity assay, MCF-7. As to conditions: Homo sapiens, MCF7, 48 h, read-out: Cytotoxic IC50 MCF-7. The format is cell-based.
Data set [2] concerns HepG2 cells. The data set is described as follows: DNA content flow cytometry cell cycle analysis. The data set is classed as cell-based. As to conditions: IC50 concentration, 48 h, control 39.15%. For orientation: A flow cytometer gives signals particle by particle.
A further data set has as its system P53. Briefly: RT-PCR gene expression, P53. The format is cell-based. The conditions noted are these: HepG2 cells, IC50, 48 h; normalized to β-actin; untreated = 1. How it is done: (§1) The gene expression of P53, Bax, Caspasses-3,8,9 as proapoptotic genes and Bcl-2 as an anti-apoptotic gene were evaluated to investigate the apoptotic pathway. […] Afterwards, the standard operating procedure called for an RT-PCR reaction to be performed. The Ct values were then used to determine the relative expression of each gene in each sample, normalised to the β-actin as house-keeping gene[90–92].

Another data set deals with Bax. Briefly: RT-PCR gene expression, Bax. The conditions noted are these: HepG2 cells, IC50, 48 h; normalized to β-actin; untreated = 1. The data set is classed as cell-based. As to the method: as §1
The test system of another data set is Casp-8. The data set is described as follows: RT-PCR gene expression, Casp-8. The data set is classed as cell-based. As to conditions: HepG2 cells, IC50, 48 h; normalized to β-actin; untreated = 1. How it is done:
as §1

A further data set has as its system Calfthymus DNA. Briefly: DNA intercalation assay (DNA/methyl green). The data set is classed as binding, calf. The conditions noted are these: average of three independent replicates, five concentrations. As to the method: (§2) Topoisomerase II (TopoGEN, Inc., Columbus) and DNA intercalator (methyl green (20 mg) and Calfthymus DNA (10 mg) were tested for their capacity to block the enzyme’s activity. Following equation was used to determine compound inhibition percentages: 100−[A control/A treated−Control)], IC50 was determined using GraphPad prism7 using inhibition curves at five different concentrations of each compound[86].

Another data set concerns Bcl-2. The data set is described as follows: RT-PCR gene expression, Bcl-2. The format is cell-based. As to conditions: HepG2 cells, IC50, 48 h; normalized to β-actin; untreated = 1. How it is done: as §1
Data set [3] has as its system HepG2 cells. Briefly: Annexin V/PI staining flow cytometry (apoptosis). The format is cell-based. The conditions noted are these: IC50 concentration, 48 h. As to the method: After incubation overnight, 6-well culture plates were populated with HepG2 cells (3–5 10^5 cells/well). […] Cells and medium supernatants were then collected and washed in ice-cold PBS. The next step was suspending the cells in 100 µL of annexin binding buffer solution "25 mM CaCl2, 1.4 M NaCl, and 0.1 M Hepes/NaOH, pH 7.4” and incubation with “Annexin V-FITC solution (1:100) and propidium iodide (PI)” at a concentration equals 10 µg/mL in the dark for 30 min. The Cytoflex FACS system was then used to acquire the stained cells. cytExpert was used for the statistical analysis.

The next data set deals with T1, Topoisomerase II (Homo sapiens, UniProt P11388).
T1 construct: purchased TopoGEN, Inc., Columbus
Briefly: Topoisomerase II inhibition assay. The conditions noted are these: average of three independent replicates, five concentrations. The format is biochemical. How it is done: as §2

In another data set the test system is Casp-9. Briefly: RT-PCR gene expression, Casp-9. The conditions noted are these: HepG2 cells, IC50, 48 h; normalized to β-actin; untreated = 1. The format is cell-based. As to the method:
as §1

A further data set has as its system Casp-3. Briefly: RT-PCR gene expression, Casp-3. The data set is classed as cell-based. As to conditions: HepG2 cells, IC50, 48 h; normalized to β-actin; untreated = 1. How it is done: as §1
A short description of data set [4]: MTT cytotoxicity assay, HepG2. The format is cell-based. As to conditions: human, HepG2 liver cells, read-out: Cytotoxic IC50 HepG2.
Description: as §3
Data set [5] can be described thus: MTT cytotoxicity assay, A549. The data set is classed as cell-based. The conditions noted are these: human, A549 lung cells, read-out: Cytotoxic IC50 A549.
Description: as §3
A short description of data set [6]: MTT cytotoxicity assay, MCF-7. The data set is classed as cell-based. As to conditions: human, MCF-7 breast cells, read-out: Cytotoxic IC50 MCF-7.
Description: as §3

T1 sequence (P11388 whole entry): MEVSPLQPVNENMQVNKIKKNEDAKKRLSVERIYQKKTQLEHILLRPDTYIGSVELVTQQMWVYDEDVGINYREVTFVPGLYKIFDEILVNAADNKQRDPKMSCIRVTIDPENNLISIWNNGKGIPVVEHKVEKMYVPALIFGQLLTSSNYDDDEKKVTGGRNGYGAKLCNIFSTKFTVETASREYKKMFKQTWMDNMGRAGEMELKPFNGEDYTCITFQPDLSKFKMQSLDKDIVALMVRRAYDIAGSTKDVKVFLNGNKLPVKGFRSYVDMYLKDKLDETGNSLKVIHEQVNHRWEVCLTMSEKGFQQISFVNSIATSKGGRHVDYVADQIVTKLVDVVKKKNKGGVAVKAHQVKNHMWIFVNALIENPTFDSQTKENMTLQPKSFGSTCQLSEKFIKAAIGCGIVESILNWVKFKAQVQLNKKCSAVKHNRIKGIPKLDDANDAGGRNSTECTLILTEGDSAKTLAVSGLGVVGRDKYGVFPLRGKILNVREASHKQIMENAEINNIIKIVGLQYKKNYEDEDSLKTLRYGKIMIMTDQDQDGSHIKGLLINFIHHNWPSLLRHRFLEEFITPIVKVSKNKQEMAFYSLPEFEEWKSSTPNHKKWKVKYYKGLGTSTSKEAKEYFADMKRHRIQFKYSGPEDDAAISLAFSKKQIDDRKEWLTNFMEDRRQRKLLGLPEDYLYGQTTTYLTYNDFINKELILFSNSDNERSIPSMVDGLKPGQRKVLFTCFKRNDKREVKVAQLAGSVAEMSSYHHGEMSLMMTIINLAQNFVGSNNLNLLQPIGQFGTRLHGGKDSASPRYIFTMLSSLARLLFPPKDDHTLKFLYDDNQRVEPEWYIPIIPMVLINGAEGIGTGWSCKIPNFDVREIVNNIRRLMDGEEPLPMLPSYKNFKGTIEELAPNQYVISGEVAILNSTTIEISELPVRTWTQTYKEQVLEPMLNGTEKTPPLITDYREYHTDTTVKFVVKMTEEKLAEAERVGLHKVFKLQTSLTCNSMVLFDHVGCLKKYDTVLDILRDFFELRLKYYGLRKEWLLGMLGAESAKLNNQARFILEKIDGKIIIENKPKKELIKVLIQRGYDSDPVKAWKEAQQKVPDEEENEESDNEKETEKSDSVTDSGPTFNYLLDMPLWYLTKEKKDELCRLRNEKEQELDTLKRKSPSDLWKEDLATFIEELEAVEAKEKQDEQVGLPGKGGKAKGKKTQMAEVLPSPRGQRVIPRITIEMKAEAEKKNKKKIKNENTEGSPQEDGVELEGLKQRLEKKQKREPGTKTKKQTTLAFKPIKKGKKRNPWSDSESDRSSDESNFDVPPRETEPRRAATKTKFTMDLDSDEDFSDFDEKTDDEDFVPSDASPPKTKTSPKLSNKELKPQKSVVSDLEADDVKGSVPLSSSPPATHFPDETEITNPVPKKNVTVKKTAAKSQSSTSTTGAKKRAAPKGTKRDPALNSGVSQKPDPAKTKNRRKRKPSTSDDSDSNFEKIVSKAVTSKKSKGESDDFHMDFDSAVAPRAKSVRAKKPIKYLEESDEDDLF
Description for A549 cells: as §3
Description for MCF-7 cells: as §3

In the case of `O=C1NC(=S)S/C1=C\c1ccc(Cl)cc1Cl` [Compound 3b, 5-((Z)-2,4-dichlorobenzylidene)-2-thioxo-4-thiazolidinone], the results for the 50% inhibitory concentration (IC50) in the data set on HepG2 cells [1], in the data set on A549 cells and in the data set with MCF-7 cells were 7.8 µM, 9.7 µM and 17.9 µM, respectively.

`O=C1NC(=S)S/C1=C\c1ccc2c(c1)OCCO2` [Compound 3c, 5-((Z)-3,4-ethylenedioxybenzylidene)-2-thioxo-4-thiazolidinone] registered a melting point of 208 to 210 °C. In the data set with HepG2 cells [1], the IC50 was 11.7 µM. Further, the half-inhibitory concentration (IC50) with A549 cells was 13.7 µM. The half-maximal inhibitory concentration (IC50) in the data set with MCF-7 cells was 7.1 µM.

As to `COc1ccc(/C=C2\SC(=S)NC2=O)cc1` [Compound 3d, 5-((Z)-4-methoxybenzylidene)-2-thioxo-4-thiazolidinone], the concentration for half-maximal inhibition (IC50) turned out to be 18.1 µM in the data set with HepG2 cells [1], 7.8 µM in the data set on A549 cells and 15.1 µM in the data set with MCF-7 cells.

Consider `COc1cccc(/C=C2\SC(=S)NC2=O)c1O` [Compound 3e], for which the melting point lay within 199 to 201 °C. For the same compound, the IC50 in the data set with HepG2 cells [1] worked out at 16.3 µM. Further, the 50% inhibitory concentration (IC50) in the data set with A549 cells worked out at 7.7 µM. The half-inhibitory concentration (IC50) in the data set with MCF-7 cells is 3.1 µM.

Take `O=C1NC(=S)S/C1=C\c1ccc2c(c1)OCO2` [Compound 3f, 5-((Z)-3,4-methylenedioxybenzylidene)-2-thioxo-4-thiazolidinone]: the IC50 was 8.9 µM with HepG2 cells [1], 21.1 µM in the data set with A549 cells and 12.8 µM in the data set on MCF-7 cells.

`CC(=O)OC[C@H]1O[C@@H](N2C(=O)CSC2=S)[C@H](OC(C)=O)[C@@H](OC(C)=O)[C@@H]1OC(C)=O` [Compound 6, 3-(2',3',4',6'-Tetra-O-acetyl-β-D-glucopyranosyl)-2-thioxo-4-thiazolidinone]: in the data set on HepG2 cells [2], the “Cell population at S-phase” value came out at 49.6%. Further, the “Fold Change = 2^-ΔΔCT P53” value with P53 was 6.16 fold and 6.16 ± 0.69 fold. The “Fold Change = 2^-ΔΔCT Bax” value with Bax is 5.7 fold and 5.7 ± 0.26 fold. Besides, in the data set on Casp-8, the “Fold Change = 2^-ΔΔCT Casp-8” value was 3.29 fold and 3.29 ± 0.5 fold. In addition, the 50% inhibitory concentration (IC50) with Calfthymus DNA amounted to 19.6 µM; with HepG2 cells [1], 0.21 µM; in the data set on A549 cells it was 1.7 µM; on Topoisomerase II it was 6.9 µM; with MCF-7 cells, 11.7 µM. The “Fold Change = 2^-ΔΔCT Bcl-2” value in the data set with Bcl-2 was 0.36 fold and 0.36 ± 0.01 fold. Besides, the “Activation of apoptotic cell death versus untreated control” value in the data set with HepG2 cells [3] was 80.7 fold. For the same compound, in the data set with HepG2 cells [3], the “Early apoptosis (AV+/PI-)” value worked out at 23.07%. In addition, the “Late apoptosis (AV+/PI+)” value in the data set with HepG2 cells [3] came out at 11.66%. In the data set with HepG2 cells [3] (untreated control 0.43%), the Total apoptosis came out at 34.73%. Further, in the data set on Casp-9, the “Fold Change = 2^-ΔΔCT Casp-9” value is 6.14 fold and 6.14 ± 0.19 fold. For the same compound, in the data set with Casp-3, the “Fold Change = 2^-ΔΔCT Casp-3” value is 8.3 fold and 8.3 ± 0.37 fold.

As for `CC(=O)OC[C@H]1O[C@@H](SC2=NC(=O)CS2)[C@H](OC(C)=O)[C@@H](OC(C)=O)[C@@H]1OC(C)=O` [Compound 7], the figures for the IC50 in the data set on Calfthymus DNA and on Topoisomerase II were 29.6 µM and 9.1 µM, respectively. Further, the figures for the IC50 at 48 h in data set [4], in [5] and in [6] were 0.76 µM, 0.31 µM and 12.4 µM, respectively.

On to `O=C1CSC(=S)N1CN1CCOCC1` [Compound 10, 3-morpholinomethyl-2-thioxo-4-thiazolidinone], for which, in the data set on A549 cells, the 50% inhibitory concentration (IC50) came out at 36.4 µM.

Consider `CSC1NC(=O)CS1` (stereo not shown) [Compound 11, 2-methylmercapto-4-thiazolidinone], for which the melting point lay in the range of 72 to 74 °C.

In the case of `CC(=O)OCC1OC(SC2=NC(=O)C(=Cc3ccccc3)S2)C(OC(C)=O)C(OC(C)=O)C1OC(C)=O` [Compound 13a, 5-((Z)-benzylidene)-2–(2',3',4',6'-tetra-O-acetyl-β-D-glucopyranosyl)-2-thioxo-4-thiazolidinone], the melting point is 166 to 168 °C. In the data set on Calfthymus DNA, this compound displayed a concentration for half-maximal inhibition (IC50) of 22.6 µM. Also, the IC50 in the data set with HepG2 cells [1] is 17.2 µM. The IC50 in the data set with A549 cells amounted to 6.1 µM. Also, at Topoisomerase II, the half-inhibitory concentration (IC50) was 8.3 µM. The IC50 in the data set with MCF-7 cells was found to be 3.1 µM.

The compound `CC(=O)OCC1OC(SC2=NC(=O)C(=Cc3ccc(Cl)cc3Cl)S2)C(OC(C)=O)C(OC(C)=O)C1OC(C)=O` [Compound 13b, 5-((Z)-2,4-dichlorobenzylidene)-2–(2',3',4',6'-tetra-O-acetyl-β-D-glucopyranosyl)-2-thioxo-4-thiazolidinone] yielded a melting point of 167 to 169 °C. Further, in the data set on HepG2 cells [1], the half-inhibitory concentration (IC50) was 7.2 µM. Further, the 50% inhibitory concentration (IC50) with A549 cells came to 10.1 µM. In addition, the concentration for half-maximal inhibition (IC50) with MCF-7 cells is 13.1 µM.

Turning to `CC(=O)OC[C@H]1O[C@@H](SC2=NC(=O)/C(=C/c3ccc4c(c3)OCCO4)S2)[C@H](OC(C)=O)[C@@H](OC(C)=O)[C@@H]1OC(C)=O` [Compound 13c, 5-((Z)-2,4-ethylenedioxybenzylidene)-2–(2',3',4',6'-tetra-O-acetyl-β-D-glucopyranosyl)-2-thioxo-4-thiazolidinone], the concentration for half-maximal inhibition (IC50) with HepG2 cells [1] turned out to be 21.2 µM; in the data set on A549 cells, 4.1 µM.

In the case of `O=C1NC(=O)/C(=C/c2ccc(Cl)cc2Cl)S1` [Compound 14, 5-((Z)-2,4-dichlorobenzylidene)-2,4-thiazolidindione], the IC50 worked out at 37.3 µM in the data set with HepG2 cells [1], 31.6 µM with A549 cells and 42.2 µM in the data set with MCF-7 cells.

As for `COc1cccc2c1C(=O)c1c(O)c3c(c(O)c1C2=O)C[C@@](O)(C(=O)CO)C[C@@H]3O[C@H]1C[C@H](N)[C@H](O)[C@H](C)O1` [Doxorubicin, reference compound], the IC50 with Calfthymus DNA is 31.3 µM; in the data set with A549 cells, 6.62 µM; in the data set with MCF-7 cells it was 7.67 µM.

One may read the IC50 as the midpoint of a concentration-inhibition curve. Broadly, the melting point is the temperature, or range, at which the solid turns liquid.
